According to paper PMC4669411 (FEBS Open Bio, 2015):

Experiments:
[1] = target: T1, PputG6PDH-1 (Pseudomonas putida, UniProt Q88P31); assay: progress curves at […] nm, product inhibition, global fit; assay type: biochemical
T1 sequence (Q88P31 1-489): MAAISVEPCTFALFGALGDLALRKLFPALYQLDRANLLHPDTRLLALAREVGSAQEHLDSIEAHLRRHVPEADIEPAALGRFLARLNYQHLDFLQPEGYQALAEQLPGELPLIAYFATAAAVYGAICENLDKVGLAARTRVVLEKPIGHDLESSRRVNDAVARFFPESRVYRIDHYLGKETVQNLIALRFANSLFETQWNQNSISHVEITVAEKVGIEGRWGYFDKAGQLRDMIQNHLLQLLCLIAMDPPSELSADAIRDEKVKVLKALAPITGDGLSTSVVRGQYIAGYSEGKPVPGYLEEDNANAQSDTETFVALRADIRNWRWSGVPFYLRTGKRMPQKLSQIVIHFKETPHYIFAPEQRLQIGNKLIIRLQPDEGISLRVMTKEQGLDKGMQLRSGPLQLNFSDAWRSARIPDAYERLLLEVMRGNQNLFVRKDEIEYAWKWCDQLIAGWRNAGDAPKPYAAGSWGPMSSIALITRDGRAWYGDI

[2] = target: T1, PputG6PDH-1; assay: initial rates, NAD; assay type: biochemical

SMILES	Ki [1]	Ki [2]
NC(=O)C1=CN([C@@H]2O[C@H](COP(=O)(O)OP(=O)(O)OC[C@H]3O[C@@H](n4cnc5c(N)ncnc54)[C@H](O)[C@@H]3O)[C@@H](O)[C@H]2O)C=CC1 [NADH]	480 ± 7 µM	–
NC(=O)C1=CN([C@@H]2O[C@H](COP(=O)(O)OP(=O)(O)OC[C@H]3O[C@@H](n4cnc5c(N)ncnc54)[C@H](OP(=O)(O)O)[C@@H]3O)[C@@H](O)[C@H]2O)C=CC1 [NADPH]	–	18 ± 3 µM
